According to ChEMBL document CHEMBL4033731, “Structural development of 1,2,3,4-tetrahydroisoquinoline-type positive allosteric modulators of prostacyclin receptor (IPPAMs) to improve metabolic stability, and investigation of metabolic fate” (Bioorg Med Chem Lett, 2017):
Active and inactive are the calls of the source. The calls are words filed in the database; no cut-off is given here.

Tests used:
[1] = molecular target: Prostacyclin receptor (Homo sapiens) (UniProt P43119); assay: Positive allosteric modulator activity at human prostacyclin receptor expressed in CHO-K1 cells assessed as compound concentration needed to shift agonist concentration response curve leftward by 2-fold by measuring CAMP accumulation; format: cell-based
[2] = Half life in human hepatic microsomes at 0.1 uM by HPLC-MS/MS method; format: ADME, Microsome; settings: liver microsomes
[3] = molecular target: Prostacyclin receptor (Homo sapiens) (UniProt P43119); assay: Positive allosteric modulator activity at human prostacyclin receptor expressed in CHO-K1 cells assessed as compound concentration needed to shift agonist concentration response curve leftward by 2-fold by measuring CAMP accumulation at 100 uM; format: cell-based
[4] = Drug level in human hepatic microsomes treated with 10 uM of 2-((1-tert-butyl-1H-tetrazol-5-yl)(3,4-dihydroisoquinolin-2(1H)-yl)methyl)-6-fluorophenol assessed as drug formation at 10 uM incubated for 90 mins at 37 degC by HPLC-MS/MS method relative to control; format: ADME, Liver, Microsome; settings: 1.5 h
[5] = Drug metabolism in human hepatic microsomes assessed as peak area for parent compound at 10 uM incubated for 90 mins at 37 degC by HPLC-MS/MS method relative to control; format: ADME, Microsome; settings: liver microsomes, read-out: Stability
[6] = Drug metabolism in human hepatic microsomes assessed as 2-((1-tert-butyl-1H-tetrazol-5-yl)(3,4-dihydroisoquinolin-2(1H)-yl)methyl)-4-fluorophenol formation at 10 uM incubated for 90 mins at 37 degC by HPLC-MS/MS method relative to control; format: ADME, Liver, Microsome; settings: 1.5 h
[7] = Drug metabolism in human hepatic microsomes assessed as 2-((3,4-dihydroisoquinolin-2(1H)-yl)(1-(1-hydroxy-2-methylpropan-2-yl)-1H-tetrazol-5-yl)methyl)-6-fluorophenol formation at 10 uM incubated for 90 mins at 37 degC by HPLC-MS/MS method relative to control; format: ADME, Liver, Microsome; settings: 1.5 h

Chain of Prostacyclin receptor (Homo sapiens) (P43119 whole entry): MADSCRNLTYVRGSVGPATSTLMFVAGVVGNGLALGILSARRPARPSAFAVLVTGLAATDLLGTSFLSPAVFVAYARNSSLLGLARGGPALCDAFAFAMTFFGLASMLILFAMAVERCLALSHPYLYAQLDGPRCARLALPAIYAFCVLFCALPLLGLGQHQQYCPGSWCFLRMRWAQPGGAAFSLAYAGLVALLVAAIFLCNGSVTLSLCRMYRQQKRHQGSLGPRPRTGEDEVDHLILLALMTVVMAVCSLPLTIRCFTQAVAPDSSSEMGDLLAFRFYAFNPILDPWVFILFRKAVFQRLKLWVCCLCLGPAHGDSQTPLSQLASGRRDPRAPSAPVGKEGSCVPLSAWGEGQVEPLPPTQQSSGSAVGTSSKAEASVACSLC

Row | Structure (SMILES) | Activity [1] | half-life at 0.1 µM [2] [min] | further results
1 | CC(C)(C)NC(=O)C(c1ccccc1)N1CCc2ccccc2C1 (centres undefined) | inactive | 6 | Activity [3]: inactive
2 | CC(C)(C)n1nnnc1C(c1ccccc1)N1CCc2ccccc2C1 (centres undefined) | 6.9 µM | 6 | 
3 | COc1ccccc1C(c1nnnn1C(C)(C)C)N1CCc2ccc(F)cc2C1 (centres undefined) | 15.2 µM | 6 | 
4 | COc1ccccc1C(c1nnnn1C(C)(C)C)N1CCC2CCCCC2C1 (centres undefined) | 6.2 µM | 3 | 
5 | CC(C)(CO)n1nnnc1C(c1cccc(F)c1O)N1CCc2ccccc2C1 (centres undefined) |  |  | Drug metabolism [4]: Metabolite_Detected
6 | CC(C)(C)n1nnnc1C(c1ccccc1O)N1CCc2ccccc2C1 (centres undefined) | 1.4 µM | 7 | 
7 | COc1ccccc1C(c1nnnn1C(C)(C)C)N1CCc2ccccc2C1 (centres undefined) | 4.3 µM | 8 | 
8 | CC(C)(C)n1nnnc1C(c1cc(F)ccc1O)N1CCc2ccccc2C1 (centres undefined) | 12 µM | 5 | 
9 | CC(C)(C)n1nnnc1C(c1ccccc1F)N1CCc2ccccc2C1 (centres undefined) | 4.7 µM | 3 | 
10 | CC(C)(C)n1nnnc1C(c1cccc(F)c1O)N1CCc2ccccc2C1 (centres undefined) | 8.2 µM | 21 | remaining at 1.5 h, 10 µM [5]: 1.04%; Drug metabolism [6]: Metabolite_Detected; Drug metabolism [7]: Metabolite_Detected
11 | CC(C)(C)n1nnnc1C(c1cccc(O)c1O)N1CCc2ccccc2C1 (centres undefined) |  |  | Drug metabolism [4]: Metabolite_Detected
